Type in all cases: cell-based, rat
Assay [1] deals with CSM14.1 cells. Briefly: Pilot dose-response of thapsigargin on undifferentiated CSM14.1 cells (ATP content, vital dye exclusion). How it is done: In pilot experiments, undifferentiated CSM14.1 cells were plated at various densities in wells of a 96 well plate, cultured overnight, then the ATP content of the cells was measured using the luminogenic ATPlite reagent (FIG. 4A). We also performed dose-response experiments for thapsigargin (FIG. 4B) by culturing CSM14.1 cells at 3,000 cells per well overnight, then treating the cells with various concentrations of TG or Sal and cultured for 18 hrs before determining ATP content (mean ±SD; n=3) (FIG. 4B). Similarly, we performed dose response experiments for Salubrinal (Sal). Cells were plated and cultured as above, then treated with various concentrations of Salubrinal, followed two hrs later by 15 uM TG. Cells were cultured for 18 hrs, then ATP content was determined (mean ±SD; n=3) (FIG. 4C). […] As a control, we employed Salubrinal, which was reported to block ER stress-induced cell death (Boyce et al., Science, 307:935-939, 2005).

Assay [2] relates to CSM14.1 cells. As to the kind of experiment: Annexin V staining viability assay (flow cytometry), thapsigargin-treated undifferentiated CSM14.1 cells. As to conditions: hit compounds 25 μM, TG 15 μM. How it is done: Undifferentiated CSM14.1 cells were cultured as for FIG. 16. The next day, DMSO (a, b) (1% final volume), 100 μM Salubrinal (c, d) or 25 μM of hit compounds (1% final DMSO) was added. After two hrs, 15 μM TG was added to all wells except a and c. The plates were returned to culture for 24 hrs, then cells were recovered by trypsinization, transferred to 1.5 ml microcentrifuge tubes, and resuspended in 0.5 mL of Annexin V-binding solution. The percentage of annexin V-negative cells was determined by flow-cytometry (y-axis). Treatments and compounds were the same as in FIG. 16.
One method we have employed, for example, for confirming protection against TG-induced killing uses fluorochrome-conjugated annexin V staining with flow-cytometry analysis to evaluate the percentage cell viability by a method that is independent of the ATP content assay.
FIGS. 16 and 17 show the results of a secondary assay for evaluating the cytoprotective activity of the compounds. In FIG. 16, undifferentiated CSM14.1 cells were cultured at 10^4 cells per well of 24-well plates (Greiner Bio One). The next day, DMSO (a, b) (1% final volume), 100 μM Salubrinal (c, d) or 25 μM of hit compounds (1% final DMSO) was added. After two hrs, 15 μM TG was added to all wells except a and c. A conventional ATP assay was performed to measure survival rate. In FIG. 17 undifferentiated CSM14.1 cells were cultured at 10^4 cells per well of 24-well plates (Greiner Bio One). The next day, DMSO (a, b) (1% final volume), 100 μM Salubrinal (c, d) or 25 μM of hit compounds (1% final DMSO) was added. After two hrs, 15 μM TG was added to all wells except a and c. […] The percentage of annexin V-negative cells was determined by flow-cytometry (y-axis), using a FACSort instrument (Beckton-Dickinson). […]
7) The percentage of annexin V-negative cells was determined by flow-cytometry (y-axis), using a FACSort analysis facility in Burnham (Beckton & Dickinson)

Assay [3] concerns CSM14.1 cells. Briefly: Primary HTS assay: ATP content (ATPlite) of undifferentiated CSM14.1 cells challenged with thapsigargin. The conditions noted are these: for Activity against thapsigargin-induced cell death / cell protection: cell death assay used for primary screening; for IC50: thapsigargin-induced death of undifferentiated CSM14.1, ATP content. From the text: For convenience, and because transient reductions in temperature that might be associated with large screening experiments could restore Large T activity, we elected to develop our HTS using undifferentiated CSM14.1 cells, with the plan to then confirm hits using differentiated cells. For monitoring cell death, we used a commercially available bioluminescence reagent that determines intracellular ATP content, without requirement for complicated cell processing steps (ATPlite, Perkin Elmer). Thus, ATP was used as a surrogate indicator of cell survival for the primary assay.
Undifferentiated or differentiated CSM14.1 cells were plated at a density of 3,000 cells/well in 40 μL DMEM medium (containing 10% serum, 1 mM L-glutamine, and antibiotics) in 96 well flat-bottom microtiter plates composed of polystrene (Greiner Bio One, polystyrene, white wall, flat bottom, lumitrac, high binding). After overnight incubation at 32° C., DMSO (0.5% v/v) or 100 uM Salubrinal (Sal) in DMSO was delivered. After 2 hrs, 5 uL of a stock solution of 150 uM TG in DMEM medium containing 0.75% (v:v) DMSO to achieve a final concentration of approximately 15 uM. After culturing for 24 hrs, cellular ATP content was measured by addition of 20 uL per well of ATPlite solution (Perkin-Elmer), and then the plates were incubated for three minutes at room temperature, before reading with a Microplate Luminometer (BD Pharmingen Moonlight model 3096).
To determine the reproducibility of the ATP content assay, we prepared a 96-well plate in which half the wells received TG plus DMSO (assay minimum) and half received TG plus Salubrinal (assay maximum), then performed the ATP content studies using undifferentiated CSM14.1 cells (FIG. 6). CSM14.1 cells were cultured overnight at 3,000 cells per well in 96-well flat-bottom plates, then either DMSO (0.5% final concentration) or Salubrinal (100 μM) in DMSO (0.5% final concentration) was added to half the well (48 each). After two hrs, TG was added to all wells (15 μM final). Cells were cultured for 24 hrs, then the ATP content was measured using the ATPlite luminogenic assay. We then adapted this assay to the high-throughput environment, using a Biomex™ FX liquid handler for automated dispensing of assay components into microwells of 96-well plates. First, undifferentiated CSM14.1 cells were grown at 32° C. in DMEM medium supplemented with 10% fetal bovine serum (FBS), 1% penicillin/streptomycin, and 1% L-glutamine in 150 mm×25 mm polystyrene culture dishes to produce approximately 3×10^6 cells. Second, CSM14.1 cells were recovered from cultures by trypsinization when at 80-90% confluence, and suspended at 7.5×10^4 cells/mL in DMEM medium containing 2% FBS, 1 mM L-glutamine, and antibiotics 100 IU penicillin 100 μg/ml streptomycin. Third, the cell suspension was then delivered at 40 μL per well of 96-well plastic microtiter plates (Greiner Bio One, polystyrene, white wall, flat bottom, lumitrac, high binding, cat #655074), and the plates were cultured overnight at 32° C. in a humidified atmosphere in 95% air: 5% CO2. Fourth, using the automated liquid handler, 5 μL of test compounds in 10% DMSO were added to wells in columns 2-11 of the 96-well plates (leaving columns 1 and 12 intact) to achieve an approximate final concentration of 15 μg/mL test compound and a final concentration of 1% DMSO. Fifth, 5 μL of 1 mM Salubrinal in a solution of 10% DMSO:90% DMEM was added to wells of column 1/rows A-D of each plate, while 5 μL of 10% DMSO:90% DMEM solution was added to wells corresponding to column 1/rows E-H and to all wells in column 12. Sixth, the plates were returned to culture.
In general terms: Cellular ATP, detected with luciferase, serves as a proxy for viable cell number.

Another assay deals with phospho-c-Jun. Briefly: Immunoblotting of thapsigargin-induced c-Jun phosphorylation in CSM14.1 cells. The conditions noted are these: immunoblotting with phospho-specific antibody, 10 μM, 25 μM hits. From the text:
After confirming the pathway selectivity of compounds, additional downstream assays can be performed to map the specific signal transduction pathway inhibited by the compounds. In this regard, various antibody reagents are commercially available for assessing the status of the three major pathways known to be activated by ER stress: (1) PERK, (2) Ire1, and (3) ATF6 (Xu et al., J. Clinical Invest., 115:2656-2664, 2005). Immunoblotting experiments can be performed to assess the expression or phosphorylation (using phospho-specific antibodies) of marker proteins in these pathways. […] CSM 14.1 cells were cultured with DMSO or with 25 μM of hit compounds for two hours, followed by treatment of thapsigargin (15 μM). Cell lysates were prepared and analyzed by SDS-PAGE/immunoblotting using antibodies specific for phospho-c-Jun, phospho-eIF2α, phospho-p38 MAPK, and tubulin (a loading control). CSM14.1 cells were cultured with either DMSO or one of the active compounds at 1, 5, and 10 μM, followed two hours later by 15 μM TG. After two hrs, cell lysates were prepared, normalized for protein content, and either analyzed by SDS-PAGE/immunoblotting using anti-p38-MAPK pan-reactive antibody or phospho-specific antibody with ECL-based detection, followed by densitometry analysis of x-ray films, normalizing phosphor-p38 MAPK relative to total p38 MAPK, or analyzed using a meso-scale instrument from MSD and a procedure in which total p38 MAPK is captured on plates, and the relative amounts of phosphorylated protein were determined using phospho-specific antibody (MSD catalog #K15112D1). […] Suppression of p38 MAPK and c-Jun phosphorylation was dose-dependent, and could not be explained by a decline in total levels of these proteins. […] Proteolytic processing of ATF6 was also not inhibited by our hit compounds. […] Screens of other libraries (such as the NIH compound collection) may yield cytoprotective compounds with different mechanisms.
1) CSM14.1 cells were plated at a density of 2×10^5 cells/well at 6 well dish (Greiner Bio one) in DMEM containing 2% FBS and antibiotics.
2) After overnight incubation, cells were treated by DMSO (0.5%) or compounds (25 μM) for two hours, followed by TG (15 uM) treatment.
3) After two hours, cells were lyzed in 250 uL of lysis buffer and subjected to protein concentration decision, and to SDS PAGE/Western blotting using antibodies specific for phospho p38 MAPK (Cell signaling 9211), p38 MAPK (Santa Cruz-C20), phospho c-Jun (Cell signaling 9164), c-Jun (Santa Cruz-SC 1694), phospho eIF2α (Cell signaling 3597) and α-tubulin.
CSM 14.1 cells were cultured with DMSO or with 25 μM of hit compounds for two hours followed by treatment with thapsigargin (15 μM). Cell lysates were prepared and analyzed by SDS-PAGE/immunoblotting using antibodies specific for: c-Jun, phosphor-c-Jun (ser 73), eIF2a, phosphor-eIF2a (ser 51), p38 MAPK, phosphor-p38 MAPK (Thr180/Tyr182), ATF-6, CHOP and tubulin (loading control). ER stress-induced activation of C-Jun and p38 MAPK is suppressed by the 11 hit compounds.
CSM cells were treated with two compounds at increasing doses. Pre-incubation time, thapsigargin treatment, cell extract preparation and immunoblotting protocols were as described previously.
Background: In western blotting, separated proteins are transferred to a membrane and probed.

The mark [4] stands for this setting: one value given, read-out: IC50.
Setting [5] is: first assay, read-out: IC50 (μM), first value.
Where [6] appears, read: second assay (value in bold), read-out: IC50 (μM), value from a second assay.

Experimental findings from patent US20080293699A1, “Inhibitors of thapsigargin-induced cell death” (priority 2007, published 2008) are described below.

SMILES strings stand for the structures. Where two headings read alike, the source gives them in different places.

As to `C/C=C(/C)C(=O)O[C@H]1C(C)=C2[C@H]([C@@H]1OC(=O)CCCCCCC)[C@@](C)(OC(C)=O)C[C@H](OC(=O)CCC)[C@@]1(O)[C@H]2OC(=O)[C@@]1(C)O` [thapsigargin], the “reduction in ATP per well” value in the assay on CSM14.1 cells [1] (15 μM thapsigargin, 3,000 cells per well, 18 hrs) is on record as about 95%. In the assay on CSM14.1 cells [1] (15 μM thapsigargin, vital dye exclusion assays), this molecule displayed a cell killing of about 95%.

As for `O=C(CN1CC[n+]2c(-c3cccs3)csc21)c1ccccc1.[Br-]` [Compound 5979207], the “Protection against TG-induced cell death measured by annexin V staining” value with CSM14.1 cells [2] was “less active”. The “Activity against thapsigargin-induced cell death / cell protection” value in the assay on CSM14.1 cells [3] was “potent inhibitor of cell death”.

By IC50 is commonly meant the concentration that inhibits the measured activity by half. Take `COc1ccc(C2CC(=O)C3=C(C2)Nc2ccccc2NC3c2ccncc2)cc1OC` (centres unmarked) [Compound 6075841]: the “Thapsigargin-induced phosphorylation of c-Jun” value in the assay on phospho-c-Jun is listed as “fail to suppress”. Besides, the “Activity against thapsigargin-induced cell death / cell protection” value in the assay on CSM14.1 cells [3] was “inactive”. Moreover, the concentration for half-maximal inhibition (IC50) in the assay on CSM14.1 cells [3] (setting [4]) is over 200 µM.

For the molecule `CCCOc1ccc(C2Nc3ccccc3NC3=C2C(=O)CC(c2ccc(OC)c(OC)c2)C3)cc1` (centres unmarked) [Compound 6237877], the “Thapsigargin-induced phosphorylation of c-Jun” value with phospho-c-Jun is “dose-dependent decrease”. The IC50 in the assay on CSM14.1 cells [3] (setting [5]) turned out to be 16.3 ± 0.439 µM; in the assay on CSM14.1 cells [3] (setting [4]), 12.5 ± 0.17 µM; with CSM14.1 cells [3] (setting [6]), 12.5 ± 0.17 µM.

Turning to `COc1cccc(CN2CCN(C(=O)c3ccc(-c4ccccc4)cc3)CC2)c1` [Compound 5998734], the “Protection against TG-induced cell death measured by annexin V staining” value in the assay on CSM14.1 cells [2] was “less active”. Moreover, the IC50 in the assay with CSM14.1 cells [3] (setting [5]) came out at 20 ± 0.493 µM; in the assay on CSM14.1 cells [3] (setting [6]), 14.6 ± 26.6 µM.
